Results published in ChEMBL document CHEMBL1153281, “Synthesis and evaluation of aniline headgroups for alkynyl thienopyrimidine dual EGFR/ErbB-2 kinase inhibitors” (Bioorg Med Chem Lett, 2009).

Key:
HFF = assay: cells; type: ADME, cell-based; conditions: Homo sapiens
HN5 [1] = assay: Antiproliferative activity against human HN5 cells overexpressing EGFR after 3 days; type: functional, cell-based; conditions: HN5, 72 h
[2] = target: T1, Receptor tyrosine-protein kinase erbB-2 (Homo sapiens, UniProt P04626); assay: Inhibition of ErbB2 by HTRF assay
[3] = target: T2, Epidermal growth factor receptor (Homo sapiens, UniProt P00533)
Description: Inhibition of EGFR by HTRF assay

BT-474 = assay: Antiproliferative activity against human BT474 cells overexpressing ErbB2 after 3 days; type: functional, cell-based; conditions: BT-474, 72 h
[4] = Protein binding in rat plasma by HPLC; type: ADME, cell-free; conditions: read-out: PPB (converted)
HN5 [5] = assay: Ratio of IC50 for human HN5 cells to IC50 for hman BT474 cells; type: functional
Mus musculus = assay: Dose normalized AUC in mouse at 10 mg/kg, po after 6 hrs; type: ADME, organism-based; set-up: time < 6 hr, dose 10 mg/kg, route oral; conditions: in vivo
[6] = target: T1, Receptor tyrosine-protein kinase erbB-2; assay: Inhibition of ErbB2 by SPA assay
[7] = target: T2, Epidermal growth factor receptor; assay: Inhibition of EGFR by SPA assay

T2 sequence (P00533 whole entry): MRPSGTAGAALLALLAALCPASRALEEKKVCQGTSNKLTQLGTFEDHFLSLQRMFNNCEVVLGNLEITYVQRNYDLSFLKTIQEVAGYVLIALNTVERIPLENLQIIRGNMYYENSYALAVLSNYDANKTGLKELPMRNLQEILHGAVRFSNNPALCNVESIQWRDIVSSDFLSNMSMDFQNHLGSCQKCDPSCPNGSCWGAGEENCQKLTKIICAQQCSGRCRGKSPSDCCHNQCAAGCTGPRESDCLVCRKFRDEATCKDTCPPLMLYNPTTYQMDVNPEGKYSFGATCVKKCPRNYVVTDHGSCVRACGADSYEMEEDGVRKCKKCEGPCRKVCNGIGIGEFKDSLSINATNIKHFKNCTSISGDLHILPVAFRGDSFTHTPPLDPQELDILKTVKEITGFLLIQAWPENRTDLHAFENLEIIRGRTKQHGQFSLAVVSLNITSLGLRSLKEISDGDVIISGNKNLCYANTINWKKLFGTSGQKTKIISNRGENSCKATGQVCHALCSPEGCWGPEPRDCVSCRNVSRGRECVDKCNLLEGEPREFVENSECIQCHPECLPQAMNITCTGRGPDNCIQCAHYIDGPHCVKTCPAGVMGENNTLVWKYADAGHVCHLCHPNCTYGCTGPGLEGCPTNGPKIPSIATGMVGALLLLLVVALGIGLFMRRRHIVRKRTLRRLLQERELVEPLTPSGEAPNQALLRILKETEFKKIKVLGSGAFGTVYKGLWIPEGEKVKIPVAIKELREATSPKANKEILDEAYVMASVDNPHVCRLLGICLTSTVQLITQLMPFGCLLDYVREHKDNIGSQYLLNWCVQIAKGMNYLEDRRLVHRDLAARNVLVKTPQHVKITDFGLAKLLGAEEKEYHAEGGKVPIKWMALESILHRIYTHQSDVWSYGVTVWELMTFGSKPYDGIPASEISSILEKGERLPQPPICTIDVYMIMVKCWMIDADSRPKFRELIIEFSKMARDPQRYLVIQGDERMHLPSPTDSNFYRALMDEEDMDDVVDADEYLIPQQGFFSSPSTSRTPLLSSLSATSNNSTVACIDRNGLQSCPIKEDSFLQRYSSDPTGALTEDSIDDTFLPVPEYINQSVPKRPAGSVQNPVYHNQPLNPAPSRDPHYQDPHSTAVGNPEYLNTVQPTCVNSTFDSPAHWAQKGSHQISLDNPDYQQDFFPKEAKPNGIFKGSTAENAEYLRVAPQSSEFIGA
T1 sequence (P04626 whole entry): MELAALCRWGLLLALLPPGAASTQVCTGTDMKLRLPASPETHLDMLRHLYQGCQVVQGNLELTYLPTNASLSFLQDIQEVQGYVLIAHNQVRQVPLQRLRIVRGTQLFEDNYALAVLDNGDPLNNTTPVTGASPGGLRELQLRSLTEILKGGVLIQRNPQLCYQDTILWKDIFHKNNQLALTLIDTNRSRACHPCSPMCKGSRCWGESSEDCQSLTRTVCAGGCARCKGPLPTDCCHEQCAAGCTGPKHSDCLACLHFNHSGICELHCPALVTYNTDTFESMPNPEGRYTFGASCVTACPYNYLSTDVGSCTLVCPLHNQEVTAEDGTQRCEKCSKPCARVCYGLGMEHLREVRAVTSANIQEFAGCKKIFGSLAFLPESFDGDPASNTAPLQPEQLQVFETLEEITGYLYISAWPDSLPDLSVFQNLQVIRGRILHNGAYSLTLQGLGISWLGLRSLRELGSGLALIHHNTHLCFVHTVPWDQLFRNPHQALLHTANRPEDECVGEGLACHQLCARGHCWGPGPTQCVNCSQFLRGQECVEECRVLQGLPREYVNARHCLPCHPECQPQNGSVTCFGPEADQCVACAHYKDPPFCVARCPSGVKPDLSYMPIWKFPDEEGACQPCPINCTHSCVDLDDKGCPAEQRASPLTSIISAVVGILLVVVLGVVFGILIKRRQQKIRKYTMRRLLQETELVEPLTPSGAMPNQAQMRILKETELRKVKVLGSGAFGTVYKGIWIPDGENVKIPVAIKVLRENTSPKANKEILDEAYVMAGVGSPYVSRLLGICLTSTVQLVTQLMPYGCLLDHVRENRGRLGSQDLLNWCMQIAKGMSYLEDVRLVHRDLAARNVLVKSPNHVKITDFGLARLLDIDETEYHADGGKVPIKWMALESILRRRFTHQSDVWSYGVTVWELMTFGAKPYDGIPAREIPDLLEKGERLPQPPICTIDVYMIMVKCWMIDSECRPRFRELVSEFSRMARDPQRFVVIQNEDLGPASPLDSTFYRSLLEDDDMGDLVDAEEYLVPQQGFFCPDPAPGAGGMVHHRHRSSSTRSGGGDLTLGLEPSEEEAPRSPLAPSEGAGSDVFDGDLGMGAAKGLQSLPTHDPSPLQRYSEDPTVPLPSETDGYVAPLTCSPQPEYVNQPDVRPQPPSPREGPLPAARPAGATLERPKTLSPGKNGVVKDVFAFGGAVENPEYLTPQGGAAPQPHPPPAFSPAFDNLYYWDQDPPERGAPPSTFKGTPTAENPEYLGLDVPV

| SMILES | IC50 [2] [nM] | IC50 [3] [nM] | IC50 (BT-474) [nM] | fraction unbound [4] | AUC (Mus musculus) [ng·h/mL/mg/kg] | IC50 [6] [nM] | IC50 [7] [nM] | IC50 (HFF) [nM] | IC50 (HN5 [1]) [nM] | Ratio IC50 (HN5 [5]) |
| --- | --- | --- | --- | --- | --- | --- | --- | --- | --- | --- |
| O=C(O[C@H]1CN[C@H](C#Cc2cc3ncnc(Nc4ccc(Cc5ccccc5)cc4)c3s2)C1)N1CCOCC1 |  | 240 | 70 | 0.036 |  |  |  | > 1000 | 270 |  |
| O=C(O[C@H]1CN[C@H](C#Cc2cc3ncnc(Nc4ccc(OCc5cscn5)c(Cl)c4)c3s2)C1)N1CCOCC1 | 60 | 120 | 70 | 0.051 |  |  |  | > 1000 | 440 |  |
| O=C(O[C@H]1CN[C@H](C#Cc2cc3ncnc(Nc4ccc5c(cnn5Cc5cc(F)ccc5F)c4)c3s2)C1)N1CCOCC1 | 35 | 33 | 10 |  |  |  |  | > 1000 | 250 | 20 |
| O=C(O[C@H]1CN[C@H](C#Cc2cc3ncnc(Nc4ccc5c(cnn5S(=O)(=O)c5cccc(F)c5)c4)c3s2)C1)N1CCOCC1 | 85 | 230 | 110 |  |  |  |  | > 1000 | 540 |  |
| O=C(O[C@H]1CN[C@H](C#Cc2cc3ncnc(Nc4ccc5c(cnn5Cc5cccc(F)c5)c4)c3s2)C1)N1CCOCC1 |  |  |  | 0.05 | 51 |  |  | > 1000 | 70 |  |
| O=C(O[C@H]1CN[C@H](C#Cc2cc3ncnc(Nc4ccc(Oc5ccnc6ccc(F)cc56)c(Cl)c4)c3s2)C1)N1CCOCC1 | 180 | 280 | 140 | 0.03 |  |  |  | > 1000 | 390 |  |
| Cc1cc(Oc2ccc(Nc3ncnc4cc(C#C[C@@H]5C[C@@H](OC(=O)N6CCOCC6)CN5)sc34)cc2Cl)no1 | 370 | 400 | 130 |  |  |  |  | > 1000 | 1450 |  |
| O=C(O[C@H]1CN[C@H](C#Cc2cc3ncnc(Nc4ccc5c(ccn5S(=O)(=O)c5ccsc5)c4)c3s2)C1)N1CCOCC1 |  |  | 120 |  |  | 120 | 150 | > 1000 | 630 |  |
| O=C(O[C@H]1CN[C@H](C#Cc2cc3ncnc(Nc4ccc5c(ccn5Cc5ccccc5)c4)c3s2)C1)N1CCOCC1 | 60 | 90 | 110 |  |  |  |  | > 1000 | 190 |  |

Now from value to compound, other results behind:

| IC50 [2] [nM] | IC50 [3] [nM] | IC50 (BT-474) [nM] | fraction unbound [4] | AUC (Mus musculus) [ng·h/mL/mg/kg] | IC50 [6] [nM] | IC50 [7] [nM] | SMILES | IC50 (HFF) [nM] | IC50 (HN5 [1]) [nM] | Ratio IC50 (HN5 [5]) |
| --- | --- | --- | --- | --- | --- | --- | --- | --- | --- | --- |
| 220 | 1650 | 100 |  |  |  |  | O=C(O[C@H]1CN[C@H](C#Cc2cc3ncnc(Nc4ccc(Sc5ccccn5)cc4)c3s2)C1)N1CCOCC1 | > 1000 | 380 |  |
| 180 | 680 | 120 |  |  |  |  | O=C(O[C@H]1CN[C@H](C#Cc2cc3ncnc(Nc4ccc5c(ccn5Cc5cscn5)c4)c3s2)C1)N1CCOCC1 | > 1000 | 550 |  |
| 260 | 1050 | 100 |  |  |  |  | O=C(O[C@H]1CN[C@H](C#Cc2cc3ncnc(Nc4ccc5c(Oc6ccccn6)cccc5c4)c3s2)C1)N1CCOCC1 | > 1000 | 120 |  |
|  |  | 90 | 0.02 | 91 |  |  | O=C(O[C@H]1CN[C@H](C#Cc2cc3ncnc(Nc4ccc(OCc5cccc(F)c5)c(Cl)c4)c3s2)C1)N1CCOCC1 [GW869810X] | > 1000 | 260 |  |
|  |  | 80 | 0.033 | 52 | 60 |  | O=C(O[C@H]1CN[C@H](C#Cc2cc3ncnc(Nc4ccc(Oc5ccccn5)c(Cl)c4)c3s2)C1)N1CCOCC1 | > 1000 | 280 |  |
|  |  | 60 | 0.031 | 120 | 30 |  | O=C(O[C@H]1CN[C@H](C#Cc2cc3ncnc(Nc4ccc(OCc5ccccn5)c(Cl)c4)c3s2)C1)N1CCOCC1 | > 1000 | 240 |  |
| 50 | 80 | 20 | 0.027 | 98 |  |  | O=C(O[C@H]1CN[C@H](C#Cc2cc3ncnc(Nc4ccc5c(cnn5Cc5ccccc5)c4)c3s2)C1)N1CCOCC1 | > 1000 | 70 |  |
| 800 | 630 | 150 | 0.024 |  |  |  | O=C(O[C@H]1CN[C@H](C#Cc2cc3ncnc(Nc4ccc(Sc5cccc(F)c5)c(Cl)c4)c3s2)C1)N1CCOCC1 | > 1000 | 310 |  |
| 130 | 120 | 130 |  |  |  |  | CC(c1cccc(F)c1)n1ncc2cc(Nc3ncnc4cc(C#C[C@@H]5C[C@@H](OC(=O)N6CCOCC6)CN5)sc34)ccc21 (stereo partly specified) | > 1000 | 70 |  |
|  |  | 4850 |  |  | 2660 |  | O=C(O[C@H]1CN[C@H](C#Cc2cc3ncnc(Nc4ccc5c(ccn5CCc5ccccc5)c4)c3s2)C1)N1CCOCC1 | > 1000 | 2020 |  |
| 450 | 2600 | 250 |  |  |  |  | O=C(O[C@H]1CN[C@H](C#Cc2cc3ncnc(Nc4ccc(OCc5cccc(F)c5)nc4)c3s2)C1)N1CCOCC1 | > 1000 | 490 |  |
| 210 | 240 | 120 |  |  |  |  | O=C(O[C@H]1CN[C@H](C#Cc2cc3ncnc(Nc4ccc5c(c4)c(F)cn5Cc4ccccc4)c3s2)C1)N1CCOCC1 | > 1000 | 320 |  |
